Measured values reported in US7265156B2 (Dospharma, priority 2000, dated 2007).
Counter-ions that a name gives are not always drawn. Like-named read-outs stand apart in the source and are kept apart here.

What was measured:
[1] = system: NIDDM patients; details: humans, simultaneous administration, arginine 30 g intravenous over 30 min; cited from earlier work
[2] = system: rats made diabetic with streptozotocin; experiment: Anti-diabetic activity in rats made diabetic with streptozotocin; type: in vivo, rat; details: streptozotocin rats (50 mg/kg IP); for hyperglycemia after treatment: 30 mg/kg; for hyperglycemia before treatment: baseline of the 30 mg/kg group
From the text: From the pharmacological point of view, the anti-diabetic activity was studied on two models of rats made diabetic.

[3] = system: hamsters made diabetic by fructose; experiment: Anti-diabetic activity in hamsters made diabetic by fructose for three months; type: in vivo, hamster; details: for 2 weeks treatment (glycemia mg/dl): hamsters, fructose 3 months, 10 mg/kg/day, fructose only 143, control without fructose 91 mg/dl
Procedure: The anti diabetic activity was also tested on hamsters made diabetic by the administration of fructose for three months. […]

[4] = system: rats made diabetic with fructose; experiment: Anti-diabetic activity in rats made diabetic with fructose at 10% in the drinking water; type: in vivo, rat; details: for 21 days fructose (glycemia mM) / Control (glycemia mM): rats; for 21 days fructose (glycemia mM): group baseline after 21 days fructose, before treatment; for Control (glycemia mM): group baseline before fructose and before treatment
Procedure: The second model is prepared by administering fructose at 10% in the drinking water of the rats for three weeks. An insulin resistance develops, followed by diabetes of […] type. […]

[5] = 50 mg/kg
[6] = system: streptozotocine model and fructose model; details: rats, 50 mg/kg; cited from earlier work
[7] = In vitro assay of cleavage in an intestinal juice; type: in vitro ADME; details: 37° C., arginine hemisuccinimide part not modified
Procedure: A preparation of intestinal juice containing trypsin, peptidases, lipase, amylase and all the other enzymes of the exocrine pancreas is used. This assay is validated beforehand using calibration compounds. A known amount (of the order of one microgram) of the compound A′V′C′ is mixed together with a known amount of intestinal juice (the trypsin and lipase contents of which are controlled). The reaction mixture is kept at 37° C. for one hour. This time is compatible with the intestinal transit. Samples are taken every 15 min, and the products A and C are detected and their concentration measured using HPLC coupled to a UV detector, or a mass spectrometer if it is not possible to use UV. The columns used depend on the nature of A and of C, but are generally ion-exchange columns, because of the presence of released alcohol, amine or acid forms. […] This assay can be coupled with determination of the release of A (biguanide), C (transporter) and V in the gastric juice, using exactly the same principle but replacing the intestinal juice with gastric juice.
A second assay is carried out on a rat hepatocyte culture, according to the method described above.

[8] = system: microcirculation of the hamster cheek pouch; experiment: Study on the cheek pouch of the hamster (microcirculation); type: in vivo; details: vasodilatory action of arginine and action of metformin on vasomotion

Q: With `CN(C)C(=N)NC(=N)N` [metformin, N,N-dimethylimidodicarbonimidic diamide] as the molecule, how does the “effect on the hemodynamic and hemorheological action of arginine” value [1] read?
A: potentiates

Q: And the hyperglycemia after treatment [2]?
A: 9.85 mM

Q: What about the hyperglycemia before treatment [2] of the same molecule?
A: 12.11 mM

Q: And the “2 weeks treatment (glycemia mg/dl)” value [3]?
A: 112 mg/dL

Q: And the “4 days treatment (glycemia mM)” value ([4]; fructose rats, 30 mg/kg/day)?
A: 13.41 ± 0.52 mM

Q: And the “8 days treatment (glycemia mM)” value ([4]; fructose rats, 30 mg/kg/day)?
A: 10.83 ± 0.64 mM

Q: What about the “12 days treatment (glycemia mM)” value ([4]; fructose rats, 30 mg/kg/day) of the same molecule?
A: 9.78 ± 0.72 mM

Q: And the “21 days treatment (glycemia mM)” value ([4]; fructose rats, 30 mg/kg/day)?
A: 9.87 ± 0.68 mM

Q: And the “21 days fructose (glycemia mM)” value [4]?
A: 12.52 ± 0.52 mM

Q: What about the “Control (glycemia mM)” value [4] of the same molecule?
A: 6.94 ± 0.13 mM

Q: Which concentration peak ([5]; rat, in vivo, po) does the source give for `CN(C)C(=N)N=C(N)N` [metformin hydrochloride] here?
A: 3900 ng/mL

Q: What about the “time of concentration peak” value ([5]; rat, in vivo, po) of the same molecule?
A: ≤ 90 min

Q: And the “activity on conventional models of non-insulin dependent diabetes” value [6]?
A: active

Q: What does the source list for “arginine hemisuccinimide-metformin hemisuccinate”?
A: release of the metformin [7]: Immediate release; hyperglycemia after treatment [2]: 7.56 mM; hyperglycemia before treatment [2]: 12.66 mM; anti-diabetic activity compared with metformin on its own ([3]; fructose hamsters, equal dose of 10 mg/kg/day, two weeks of treatment): significantly more active; 2 weeks treatment (glycemia mg/dl) [3]: 93 mg/dL; 4 days treatment (glycemia mM) ([4]; fructose rats, 70 mg/kg/day): 10.92 ± 0.44 mM; 8 days treatment (glycemia mM) ([4]; fructose rats, 70 mg/kg/day): 9.13 ± 0.64 mM; 12 days treatment (glycemia mM) ([4]; fructose rats, 70 mg/kg/day): 8.43 ± 0.52 mM; 21 days treatment (glycemia mM) ([4]; fructose rats, 70 mg/kg/day): 7.76 ± 0.78 mM; anti-diabetic activity compared with metformin alone ([4]; fructose rats, equivalent dose of metformin base): significantly more active; 21 days fructose (glycemia mM) [4]: 12.14 ± 0.28 mM; Control (glycemia mM) [4]: 6.84 ± 0.06 mM; time of concentration peak ([5]; rats, oral, plasma metformin): 60 min; effects on the microcirculation [8]: reproduces at least the effects of the two active principles

Q: With `N=C(N)NCCC[C@H](N)C(=O)O` [arginine] as the molecule, how does the “effect on the antihyperglycemic effects of metformin” value [1] read?
A: not modified

Q: And the “4 days treatment (glycemia mM)” value ([4]; fructose rats, 30 mg/kg/day)?
A: 14.37 ± 0.20 mM

Q: What about the “8 days treatment (glycemia mM)” value ([4]; fructose rats, 30 mg/kg/day) of the same molecule?
A: 12.56 ± 0.89 mM

Q: What about the “12 days treatment (glycemia mM)” value ([4]; fructose rats, 30 mg/kg/day) of the same molecule?
A: 11.98 ± 0.71 mM

Q: What about the “21 days treatment (glycemia mM)” value ([4]; fructose rats, 30 mg/kg/day) of the same molecule?
A: 10.73 ± 1.27 mM

Q: And the “21 days fructose (glycemia mM)” value [4]?
A: 13.24 ± 0.62 mM

Q: And the “Control (glycemia mM)” value [4]?
A: 6.87 ± 0.14 mM
